Results taken from ChEMBL document CHEMBL3885861, “Open TG-GATES”.

Species: Rattus norvegicus
Assay: Open TG-GATES - Regimen: Single
Format: toxicity, organism-based, Sprague-Dawley
Set-up: regimen Single, gender Male, age 6 weeks
Conditions: in vivo, po, 300 mg/kg, route gavage, dose level Middle; for APTT / Bas / Eos / Fbg / Hb / Ht / Lym / MCH / MCHC / MCV / Mono / Neu / PT / Plat / RBC / Ret / WBC: tissue Blood; for KIDNEY_L / KIDNEY_R / KIDNEY_TOTAL: tissue Kidney; for LIVER: tissue Liver; for A/G / ALP / ALT / AST / BUN / CRE / Ca / Cl / DBIL / GLC / IP / K / LDH / Na / PL / RALB / TBIL / TC / TG / TP / gamma-GTP: tissue Plasma

Compound: CCCCNC(=O)NS(=O)(=O)c1ccc(C)cc1 [TOLBUTAMIDE]
- TERMINAL_BW (9 h): 200 g
- APTT (9 h): 17.4 s
- Bas (9 h): 0%
- Eos (9 h): 1.2%
- Fbg (9 h): 324 mg/dL
- Hb (9 h): 13.7 g/dL
- Ht (9 h): 41.4%
- Lym (9 h): 69%
- MCH (9 h): 20.7 pg
- MCHC (9 h): 32.9%
- MCV (9 h): 62.9 fL
- Mono (9 h): 2.4%
- Neu (9 h): 27%
- PT (9 h): 13.4 s
- Plat (9 h): 129.6 x10_4/uL
- RBC (9 h): 659 x10_4/ul
- Ret (9 h): 8.8%
- WBC (9 h): 81.6 x10_2/uL
- KIDNEY_L (9 h): 0.9 g
- KIDNEY_R (9 h): 0.9 g
- KIDNEY_TOTAL (9 h): 1.8 g
- LIVER (9 h): 7.9 g
- A/G (9 h): 0.9
- ALP (9 h): 1449.6 IU/L
- ALT (9 h): 40.4 IU/L
- AST (9 h): 71.8 IU/L
- BUN (9 h): 9.6 mg/dL
- CRE (9 h): 0.2 mg/dL
- Ca (9 h): 10.8 mg/dL
- Cl (9 h): 106.4 meq/L
- DBIL (9 h): 0.004 mg/dL
- GLC (9 h): 136.6 mg/dL
- IP (9 h): 9.9 mg/dL
- K (9 h): 4 meq/L
- LDH (9 h): 62 IU/L
- Na (9 h): 142 meq/L
- PL (9 h): 127.2 mg/dL
- RALB (9 h): 2.6 g/dL
- TBIL (9 h): 0.064 mg/dL
- TC (9 h): 69.4 mg/dL
- TG (9 h): 41.6 mg/dL
- TP (9 h): 5.4 g/dL
- gamma-GTP (9 h): 1 IU/L
- TERMINAL_BW (24 h): 218.5 g
- APTT (24 h): 16.4 s
- Bas (24 h): 0.2%
- Eos (24 h): 1%
- Fbg (24 h): 314.2 mg/dL
- Hb (24 h): 13.3 g/dL
- Ht (24 h): 40.4%
- Lym (24 h): 76.6%
- MCH (24 h): 20.9 pg
- MCHC (24 h): 33%
- MCV (24 h): 63.5 fL
- Mono (24 h): 3.6%
- Neu (24 h): 18%
- PT (24 h): 12.9 s
- Plat (24 h): 125 x10_4/uL
- RBC (24 h): 636.8 x10_4/ul
- Ret (24 h): 8%
- WBC (24 h): 102.5 x10_2/uL
- KIDNEY_L (24 h): 0.9 g
- KIDNEY_R (24 h): 0.9 g
- KIDNEY_TOTAL (24 h): 1.9 g
- LIVER (24 h): 10.3 g
- A/G (24 h): 0.9
- ALP (24 h): 1549.2 IU/L
- ALT (24 h): 45 IU/L
- AST (24 h): 72.2 IU/L
- BUN (24 h): 14.2 mg/dL
- CRE (24 h): 0.2 mg/dL
- Ca (24 h): 11.1 mg/dL
- Cl (24 h): 105 meq/L
- DBIL (24 h): 0.008 mg/dL
- GLC (24 h): 180.2 mg/dL
- IP (24 h): 8.5 mg/dL
- K (24 h): 4 meq/L
- LDH (24 h): 83 IU/L
- Na (24 h): 141.2 meq/L
- PL (24 h): 150.2 mg/dL
- RALB (24 h): 2.5 g/dL
- TBIL (24 h): 0.062 mg/dL
- TC (24 h): 81.8 mg/dL
- TG (24 h): 85 mg/dL
- TP (24 h): 5.4 g/dL
- gamma-GTP (24 h): 1 IU/L
